The values below come from patent publication US12605374B2, “Methods for drug screening and compositions useful for the inhibition of cell proliferation and/or cell survival” (The Brigham and Women's Hospital, Inc., priority 2019, dated 2026).

For one assay, the system named is embryonic zebrafish. Kind of assay: Blinded re-screen of top 10 prioritized ChemBridge compounds for developmental phenotypes in embryonic zebrafish. It counts as in vivo. Conditions: for Phenotype Observed: embryonic zebrafish, 10 uM introduced at 5 hpf, scored at 24 and 48 hpf, blinded, in duplicate. Here is the method: Male and female wild-type (AB) fish were housed and embryos bred for screening using standard protocols. […] 10 mM compound stocks were diluted to 2 mM using DMSO, and 1 μL of each diluted compound solution was introduced into individual wells at 5 hours post fertilization (hpf) using a manual multichannel pipettor (10 uM final concentration). The first and last column of each plate received only DMSO, serving as negative control wells.
Embryos were screened for a series of developmental phenotypes at both 24 and 48 hpf using standard light microscopy. […] Only those wells where at least two of the three embryos were dead or delayed were annotated as a hit for 24 hour death or delay/arrest, respectively.
Resulting scores for each phenotype were used to rank the over 900,000 compounds. Enrichment for compounds with high (>0.95) similarity to known therapeutics (defined using Tanimoto Coefficient of molecular fingerprints) was calculated for each of the 6 ranked lists using gene set enrichment analysis^69. The top 10 highest-ranking compounds from each of the 6 lists were screened as described above, blinded and in duplicate.

Another assay relates to zebrafish embryos. As to the kind of experiment: Rescue of developmental delay/arrest phenotype by phospholipase products. Type of assay: in vivo. As to conditions: for rescue of the developmental delay/arrest phenotype of DA5: zebrafish embryos treated with DA5. From the text:
FIG. 15 (A)-(B): Effect of timing and injection on DA5 rescue. Rescue of the DA5 phenotype was compared using introduction of phosphatidic acid (PAC) in-well, versus injected into the embryo at the 1-cell developmental stage (A; DA5 introduced at 5 hpf).
Given the known role of anoxia in cancer cell proliferation, we investigated the potential of the DA compounds to inhibit cancer cell growth in cell culture. We found a significant reduction in the proliferation of immortalized cells upon introduction of all DA compounds (FIG. 16).

“Also recorded” adds a separate entry of the source.

In the case of `COc1ccccc1Nc1nc(-c2ccncc2)cs1` [ChemBridge ID 5745969], the “Hit (predicted phenotype observed)” value with embryonic zebrafish (Prediction: Dead) is recorded as “No”. For the same compound, the “Phenotype Observed” value in the assay with embryonic zebrafish is “Multiple severe phenotypes”.
In the case of `Br.COc1ccccc1Nc1nc(-c2sc(C)nc2C)cs1` [ChemBridge ID 5931065], the “Hit (predicted phenotype observed)” value in the assay on embryonic zebrafish (Prediction: Dead) is on record as “Yes”. In addition, the “Phenotype Observed” value in the assay with embryonic zebrafish was “Dead (48 h)”.
For the compound `CC(NCc1ccccc1O)C12CC3CC(CC(C3)C1)C2` (stereo not drawn) [ChemBridge ID 6108849], the “Hit (predicted phenotype observed)” value with embryonic zebrafish (Prediction: Pigmentation) and with embryonic zebrafish (Prediction: Pigmentation Only) was “Yes” throughout. The “Phenotype Observed” value in the assay with embryonic zebrafish is reported as “No pigmentation, dying”.
Take `O=C(Nc1ccccc1Cl)N1CCN(c2ccccc2F)CC1` [ChemBridge ID 7008803]: the “Hit (predicted phenotype observed)” value with embryonic zebrafish (Prediction: Cranial Edema) is reported as “No”. Besides, in the assay on embryonic zebrafish, the “Phenotype Observed” value is listed as “slight discoloration”.
With `COCC1CCN(C(=O)c2cc(COc3ccc4ncccc4c3)on2)CC1` [ChemBridge ID 13197878], the “Hit (predicted phenotype observed)” value in the assay with embryonic zebrafish (Prediction: Delay/Arrest) was “Yes”. Also, the “Phenotype Observed” value in the assay with embryonic zebrafish is recorded as “Bud stage at 24 h, dead at 48 h”.
Turning to `CCOC(=O)C1(CCc2ccccc2)CCCN(Cc2nccn2CC)C1` (stereo not drawn) [ChemBridge ID 13300080], the “Hit (predicted phenotype observed)” value in the assay with embryonic zebrafish (Prediction: Pigmentation) and in the assay with embryonic zebrafish (Prediction: Pigmentation Only) was “Yes” each time. For the same compound, in the assay with embryonic zebrafish, the “Phenotype Observed” value is “No pigmentation, dying; also recorded: No pigmentation, slow heart beat”.
Consider `CN(CC1CCN(CCc2ccc(Cl)cc2)CC1)C(=O)c1ccccc1-n1cccn1` [ChemBridge ID 18069546], for which the “Hit (predicted phenotype observed)” value in the assay on embryonic zebrafish (Prediction: Cardiac) is on record as “Yes”. For the same compound, the “Phenotype Observed” value with embryonic zebrafish was “Pericardial edema, no heart beat”.
As to `COC(=O)c1ccc(-c2noc(CN(Cc3ccncc3)CC3CCCO3)n2)cc1` (stereo not drawn) [ChemBridge ID 18809966], in the assay on embryonic zebrafish (Prediction: Body Axis), the “Hit (predicted phenotype observed)” value is “Yes”. Also, in the assay on embryonic zebrafish, the “Phenotype Observed” value is reported as “Small body (appear dorsalized)”.
Regarding `O=C(c1cc(COc2ccc3ncccc3c2)on1)N1C[C@@H]2C[C@H]3C[C@@H](C2)C[C@@H]1C3` [ChemBridge ID 19759648], in the assay on embryonic zebrafish (Prediction: Delay/Arrest), the “Hit (predicted phenotype observed)” value is reported as “Yes”. Further, the “Phenotype Observed” value in the assay with embryonic zebrafish is listed as “Bud stage at 24 h, dead at 48 h”.
Regarding `COC(=O)c1ccc(-c2nc(CN3CCCCC3c3cccc(OC)c3)c(C)o2)cc1` (stereo not drawn) [ChemBridge ID 20494296], the “Hit (predicted phenotype observed)” value with embryonic zebrafish (Prediction: Body Axis) is “Yes”. Also, the “Phenotype Observed” value in the assay with embryonic zebrafish is reported as “Short, no heads”.
As for `O=C(c1cc(COc2ccc3ncccc3c2)on1)N1CCCC(OCc2ccccn2)C1` (stereo not drawn) [ChemBridge ID 21652166], in the assay on embryonic zebrafish (Prediction: Delay/Arrest), the “Hit (predicted phenotype observed)” value was “Yes”. Also, the “Phenotype Observed” value with embryonic zebrafish is 5-10 somite stage at 48 h.
`COC(=O)c1ccc(-c2nc(CN3CCCCC3c3nc4cc(F)ccc4[nH]3)c(C)o2)cc1` (stereo not drawn) [ChemBridge ID 22685803]: the “Hit (predicted phenotype observed)” value with embryonic zebrafish (Prediction: Body Axis) is “Yes”. In addition, the “Phenotype Observed” value with embryonic zebrafish is reported as “Most dead, remaining have small bodies”.
Turning to `CCOC(=O)C1(CCOc2ccccc2)CCN(Cc2cc(OC)cc(OC)c2)CC1` [ChemBridge ID 23490385], the “Hit (predicted phenotype observed)” value is on record as “Yes” with embryonic zebrafish (Prediction: Cardiac) and “No” in the assay on embryonic zebrafish (Prediction: Cranial Edema). Besides, in the assay with embryonic zebrafish, the “Phenotype Observed” value was “Pericardial edema, no heart beat”.
On to `CSc1ccc(-c2nc(CN3CCCCC3c3nccn3C)c(C)o2)cc1` (stereo not drawn) [ChemBridge ID 23702187], for which, in the assay on embryonic zebrafish (Prediction: Pigmentation), the “Hit (predicted phenotype observed)” value is given as “Yes”. Besides, the “Phenotype Observed” value in the assay on embryonic zebrafish is reported as “No pigmentation, cranial edema, slow heart beat”.
Regarding `CN(CC1CCN(CCc2ccc(F)cc2)CC1)C(=O)c1ccsc1` [ChemBridge ID 26410496], the “Hit (predicted phenotype observed)” value in the assay with embryonic zebrafish (Prediction: Cardiac) is given as “Yes”. The “Phenotype Observed” value in the assay with embryonic zebrafish was “Pericardial edema, no heart beat”.
Consider `COC(=O)c1ccc(-c2nc(CN(C)C(C)c3nc(C)cs3)c(C)o2)cc1` (stereo not drawn) [ChemBridge ID 34105851], for which the “Hit (predicted phenotype observed)” value in the assay with embryonic zebrafish (Prediction: Body Axis) is “Yes”. The “Phenotype Observed” value in the assay on embryonic zebrafish was “Small body (no head)”.
As to `OCCC1CN(Cc2ccc(F)cc2F)CCN1CCCc1ccccc1` (stereo not drawn) [ChemBridge ID 35983174], the “Hit (predicted phenotype observed)” value in the assay with embryonic zebrafish (Prediction: Cardiac) and in the assay on embryonic zebrafish (Prediction: Cardiac Only) was “Yes” throughout. Moreover, the “Phenotype Observed” value with embryonic zebrafish is “Pericardial edema, no heart beat”.
As for `CN(CC1CCN(CCc2ccc(Cl)cc2)CC1)C(=O)C1=CCCCC1` [ChemBridge ID 37690524], the “Hit (predicted phenotype observed)” value in the assay on embryonic zebrafish (Prediction: Cardiac) is “Yes”. Moreover, in the assay on embryonic zebrafish, the “Phenotype Observed” value is “Pericardial edema, no heart beat”.
Regarding `CCOC(=O)C1(Cc2cccc(OC)c2)CCCN(Cc2nccn2CC)C1` (stereo not drawn) [ChemBridge ID 38433186], the “Hit (predicted phenotype observed)” value in the assay with embryonic zebrafish (Prediction: Pigmentation) and in the assay with embryonic zebrafish (Prediction: Pigmentation Only) was “Yes” throughout. For the same compound, the “Phenotype Observed” value with embryonic zebrafish was “No pigmentation”.
Take `CCOC(=O)C1(CCOc2ccccc2)CCN(Cc2ccc(OC)cc2)CC1` [ChemBridge ID 38617825]: the “Hit (predicted phenotype observed)” value in the assay with embryonic zebrafish (Prediction: Cardiac) is given as “No”. For the same compound, the “Phenotype Observed” value in the assay on embryonic zebrafish is listed as “Dead (48 h)”.
`CN(CC1CCN(CCc2ccc(Cl)cc2)CC1)C(=O)c1cccc(N(C)C)c1` [ChemBridge ID 39911836]: the “Hit (predicted phenotype observed)” value in the assay on embryonic zebrafish (Prediction: Cardiac) is recorded as “Yes”. Moreover, the “Phenotype Observed” value in the assay with embryonic zebrafish is given as “Pericardial edema, no heart beat”.
On to `C[C@@H]1CN(C(=O)c2cc(COc3ccc4ncccc4c3)on2)C[C@H](C)O1` [ChemBridge ID 44889923], for which the “Hit (predicted phenotype observed)” value in the assay on embryonic zebrafish (Prediction: Delay/Arrest) is “Yes”. In addition, the “Phenotype Observed” value in the assay with embryonic zebrafish is reported as “Look 24 h at 48 h”.
For `O=C(c1cc(COc2ccc3ncccc3c2)on1)N1CCC(N2CCSCC2)CC1` [ChemBridge ID 45187255], the “Hit (predicted phenotype observed)” value in the assay with embryonic zebrafish (Prediction: Delay/Arrest) was “Yes”. Also, in the assay on embryonic zebrafish, the “Phenotype Observed” value is “Bud stage at 24 h, 5-18 somites at 48 h”.
`O=C(c1cc(COc2ccc3ncccc3c2)on1)N1C[C@H]2CCC[C@H]1C2` [ChemBridge ID 54305680]: the “Hit (predicted phenotype observed)” value in the assay on embryonic zebrafish (Prediction: Delay/Arrest) is on record as “Yes”. Moreover, the “Phenotype Observed” value in the assay with embryonic zebrafish is on record as “Bud stage at 24 h, dead at 48 h”.
Regarding `COC(=O)c1ccc(-c2noc(CN(CCO)Cc3cccs3)n2)cc1` [ChemBridge ID 56638922], the “Hit (predicted phenotype observed)” value in the assay with embryonic zebrafish (Prediction: Body Axis) is recorded as “Yes”. Besides, the “Phenotype Observed” value in the assay on embryonic zebrafish was “Small heads, short bodies”.
Turning to `CN(CC1CCN(CCc2ccc(Cl)cc2)CC1)C(=O)c1ccsc1` [ChemBridge ID 59314184], the “Hit (predicted phenotype observed)” value in the assay on embryonic zebrafish (Prediction: Cardiac) is reported as “Yes”. Further, the “Phenotype Observed” value in the assay on embryonic zebrafish was “Pericardial edema, no heart beat”.
`CCOC(=O)C1(C/C=C/c2ccccc2)CCCN(Cc2nccn2CC)C1` (stereo not drawn) [ChemBridge ID 69904708]: the “Hit (predicted phenotype observed)” value in the assay on embryonic zebrafish (Prediction: Pigmentation) and in the assay on embryonic zebrafish (Prediction: Pigmentation Only) was “Yes” throughout. The “Phenotype Observed” value in the assay on embryonic zebrafish is on record as “No pigmentation, cranial edema, slow heart beat”.
For the compound `COC(=O)c1ccc(-c2noc(CN(CCO)Cc3ccccc3)n2)cc1` [ChemBridge ID 86606851], in the assay on embryonic zebrafish (Prediction: Body Axis), the “Hit (predicted phenotype observed)” value is on record as “Yes”. Also, the “Phenotype Observed” value in the assay on embryonic zebrafish is “Some dead, alive have no head, necrotic”.
As to `CCOC(=O)C1(CCOc2ccccc2)CCN(Cc2ccccc2OC)CC1` [ChemBridge ID 87194463], the “Hit (predicted phenotype observed)” value in the assay with embryonic zebrafish (Prediction: Cardiac) is reported as “No”. Moreover, the “Phenotype Observed” value in the assay with embryonic zebrafish is listed as “Dead (48 h)”.
With `Cc1oc(-c2cccc(C(F)(F)F)c2)nc1CN1CCCCC1c1nccn1C` (stereo not drawn) [ChemBridge ID 91866361], the “Hit (predicted phenotype observed)” value with embryonic zebrafish (Prediction: Pigmentation) is “Yes”. Besides, the “Phenotype Observed” value with embryonic zebrafish is given as “No pigmentation, cranial edema, slow heart beat”.
In the case of `CCOC(=O)C1(Cc2ccccc2)CCCN(Cc2nccn2CC)C1` (stereo not drawn) [ChemBridge ID 98334673], the “Hit (predicted phenotype observed)” value in the assay on embryonic zebrafish (Prediction: Pigmentation) and in the assay on embryonic zebrafish (Prediction: Pigmentation Only) was “Yes” each time. In addition, in the assay with embryonic zebrafish, the “Phenotype Observed” value is given as “No pigmentation, cranial edema”.
For the compound `O=P(O)(O)O[C@@H]1[C@H](O)[C@H](O)[C@@H](OP(=O)(O)O)[C@H](OP(=O)(O)O)[C@H]1O` [D-myo-Inositol-1,4,5-triphosphate], in the assay with zebrafish embryos, the “rescue of the developmental delay/arrest phenotype of DA5” value is “did not observe rescue”.
As for Phosphatidic acid, the “rescue of the DA5 phenotype” value with zebrafish embryos (DA5 introduced at 5 hpf, PAC in-well at 24 hpf, phenotypes surveyed at 36 hpf) is recorded as “rescue still observed”; in the assay on zebrafish embryos (upon injection and introduction into embryonic medium, multiple time points after DA5), “rescued”. Besides, the “rescue of the developmental delay/arrest phenotype of DA5” value in the assay on zebrafish embryos is given as “rescued”; with zebrafish embryos (listed as phosphatidic acid), “rescue”. Also, in the assay on zebrafish embryos (zebrafish embryos treated with oligomycin A), the “rescue of the phenotype of oligomycin A” value is “did not rescue”.
